Patent US20180044329A1, “3-SUBSTITUTED-1,2,4-OXADIAZOLE AND THIADIAZOLE COMPOUNDS AS IMMUNOMODULATORS” (AURIGENE DISCOVERY TECHNOLOGIES LIMITED, priority 2015, published 2018)

System: Recombinant mouse PD-L1
Assay: Rescue of mouse splenocyte proliferation in the presence of recombinant PD-L1 (CFSE proliferation assay)
Format: cell-based
Details: compound at 100 nM; anti-CD3/CD28 stimulated mouse splenocytes + PD-L1; 72 h; stimulated splenocyte proliferation normalised as 100%; read-out: Percent rescue of splenocyte proliferation (@100 nM)
Description: Rescue of Mouse Splenocyte Proliferation in the Presence of Recombinant PD-L1
Recombinant mouse PD-L1 (rm-PDL-1, cat no: 1019-B7-100; R&D Systems) were used as the source of PD-L1.
Mouse splenocytes harvested from 6-8 weeks old C57 BL6 mice; RPMI 1640 (GIBCO, Cat #11875); DMEM with high glucose (GIBCO, Cat #D6429); Fetal Bovine Serum [Hyclone, Cat #SH30071.03]; Penicillin (10000 unit/mL)-Streptomycin (10,000 μg/mL) Liquid (GIBCO, Cat #15140-122); MEM Sodium Pyruvate solution 100 mM (100×), Liquid (GIBCO, Cat #11360); Nonessential amino acid (GIBCO, Cat #11140); L-Glutamine (GIBCO, Cat #25030); Anti-CD3 antibody (eBiosciences—16-0032); Anti-CD28 antibody (eBiosciences—16-0281); ACK lysis buffer (1 mL) (GIBCO, Cat #-A10492); Histopaque (density-1.083 gm/mL) (SIGMA 10831); Trypan blue solution (SIGMA-T8154); 2 mL Norm Ject Luer Lock syringe-(Sigma 2014-12); 40 μm nylon cell strainer (BD FALCON 35230); Hemacytometer (Bright line-SIGMA Z359629); FACS Buffer (PBS/0.1% BSA): Phosphate Buffered Saline (PBS) pH 7.2 (Hi-Media TS1006) with 0.1% Bovine Serum Albumin (BSA) (SIGMA A7050) and sodium azide (SIGMA 08591); 5 mM stock solution of CFSE: CFSE stock solution was prepared by diluting lyophilized CFSE with 180 μL of Dimethyl sulfoxide (DMSO C2H6SO, SIGMA-D-5879) and aliquoted in to tubes for further use. Working concentrations were titrated from 10 μM to 1 μM. (eBioscience-650850-85); 0.05% Trypsin and 0.02% EDTA (SIGMA 59417C); 96-well format ELISA plates (Corning CLS3390); BD FACS caliber (E6016); Recombinant mouse B7-H1/PDL1 Fc Chimera, (rm-PD-L1 cat no: 1019-B7-100).
Splenocytes harvested in a 50 mL falcon tube by mashing mouse spleen in a 40 μm cell strainer were further treated with 1 mL ACK lysis buffer for 5 min at room temperature. After washing with 9 mL of RPMI complete media, cells were re-suspended in 3 mL of 1× PBS in a 15 mL tube. 3 mL of Histopaque was added carefully to the bottom of the tube without disturbing overlaying splenocyte suspension. After centrifuging at 800×g for 20 min at room temperature, the opaque layer of splenocytes was collected carefully without disturbing/mixing the layers. Splenocytes were washed twice with cold 1× PBS followed by total cell counting using Trypan Blue exclusion method and used further for cell based assays.
Splenocytes were cultured in RPMI complete media (RPMI+10% fetal bovine serum+1 mM sodium pyruvate+10,000 units/mL penicillin and 10,000 μg/mL streptomycin) and maintained in a CO2 incubator with 5% CO2 at 37° C.
CFSE is a dye that passively diffuses into cells and binds to intracellular proteins. 1×10^6 cells/mL of harvested splenocytes were treated with 5 μM of CFSE in pre-warmed 1× PBS/0.1% BSA solution for 10 min at 37° C. Excess CFSE was quenched using 5 volumes of ice-cold culture media to the cells and incubated on ice for 5 min CFSE labelled splenocytes were further given three washes with ice cold complete RPMI media. CFSE labelled 1×10^5 splenocytes added to wells containing either MDA-MB231 cells (1×10^5 cells cultured in high glucose DMEM medium) or recombinant human PDL-1 (100 ng/mL) and compounds of the present invention. Splenocytes were stimulated with anti-mouse CD3 and anti-mouse CD28 antibody (1 μg/mL each) and the culture was further incubated for 72 h at 37° C. with 5% CO2. Cells were harvested and washed thrice with ice cold FACS buffer and % proliferation was analysed by flow cytometry with 488 nm excitation and 521 nm emission filters.
Percent splenocyte proliferation was analysed using cell quest FACS program and percent rescue of splenocyte proliferation by compound was estimated after deduction of % background proliferation value and normalising to % stimulated splenocyte proliferation (positive control) as 100%. […]

| Compound | activity at 0.1 µM |
| --- | --- |
| CC(O)[C@H](NC(=O)N[C@@H](CC(N)=O)c1nc(N2CCCCC2)no1)C(=O)O (stereo partly shown) [Compound 15] | 54% |
| CC(O)[C@H](NC(=O)N[C@@H](CC(N)=O)c1nc(N2CCNCC2)no1)C(=O)O (stereo partly shown) [Compound 16] | 79% |
| CC(O)[C@H](NC(=O)N[C@@H](CC(N)=O)c1nc(-c2ccccn2)no1)C(=O)O (stereo partly shown) [Compound 20] | 27% |
| CC(O)[C@H](NC(=O)N[C@@H](CC(N)=O)c1nc(-c2cnccn2)no1)C(=O)O (stereo partly shown) [Compound 21] | 39% |
| CC(O)[C@H](NC(=O)N[C@@H](CC(N)=O)c1nc(-c2cc(Cl)ccn2)no1)C(=O)O (stereo partly shown) [Compound 22] | 39% |
| COc1ccnc(-c2noc([C@H](CC(N)=O)NC(=O)N[C@H](C(=O)O)C(C)O)n2)c1 (stereo partly shown) [Compound 23] | 27% |
| CC(O)[C@H](NC(=O)N[C@@H](CC(N)=O)c1nc(-c2cccc(F)c2)no1)C(=O)O (stereo partly shown) [Compound 24] | 50% |
| CC(O)[C@H](NC(=O)N[C@@H](CC(N)=O)c1nc(-c2cc(F)ccc2F)no1)C(=O)O (stereo partly shown) [Compound 25] | 42% |
| Cc1ccc(-c2noc([C@H](CC(N)=O)NC(=O)N[C@H](C(=O)O)C(C)O)n2)o1 (stereo partly shown) [Compound 26] | 24% |
| CC(O)[C@H](NC(=O)N[C@@H](CC(N)=O)c1nc(N2CCC[C@H](O)C2)no1)C(=O)O (stereo partly shown) [Compound 27] | 6% |
| O=C(O)CNC(=O)N[C@@H](CC(=O)O)c1nc(N2CCCC2)no1 [Compound 30] | 7% |
| CC(O)[C@H](NC(=O)N[C@@H](Cc1cn(-c2ccccc2C(=O)O)nn1)c1nc(-c2cnccn2)no1)C(=O)O (stereo partly shown) [Compound 31] | 67% |
| C#CC[C@H](NC(=O)N[C@H](C(=O)O)C(C)O)c1nc(-c2cnccn2)no1 (stereo partly shown) [Compound 32] | 92% |
| NCCCC[C@H](NC(=O)N[C@@H](CC(N)=O)c1nc([C@H]2CCCCN2)no1)C(=O)O [Compound 34] | 78% |
| CC(O)[C@H](NC(=O)N[C@@H](CCC(=O)O)c1nc(-c2cc(F)ccc2F)no1)C(=O)O (stereo partly shown) [Compound 37] | 74% |
| CC(O)[C@H](NC(=O)N[C@@H](CC(=O)O)c1nc(N2CCCC2)no1)C(=O)O (stereo partly shown) [Compound 38] | 27% |
| CC(O)[C@H](NC(=O)N[C@@H](CCC(=O)O)c1nc(N2CCCC2)no1)C(=O)O (stereo partly shown) [Compound 39] | 39% |
| CC(O)[C@H](NC(=O)N[C@@H](CC(N)=O)c1nc(-c2ccc(-c3ccccc3)cc2)no1)C(=O)O (stereo partly shown) [Compound 40] | 79% |
| CC(O)[C@H](NC(=O)N[C@@H](CC(=O)O)c1nc(-c2cnccn2)no1)C(=O)O (stereo partly shown) [Compound 41] | 73% |
| CC(O)[C@H](NC(=O)N[C@@H](CC(N)=O)c1nc([C@@H]2COCCN2)no1)C(=O)O (stereo partly shown) [Compound 43] | 92% |
| CC(O)[C@H](NC(=O)N[C@@H](CC(N)=O)c1nc([C@@H]2CCCCN2)no1)C(=O)O (stereo partly shown) [Compound 44] | 84% |
| CC(O)[C@H](NC(=O)N[C@@H](CC(N)=O)c1nc([C@@H]2CNCCN2)no1)C(=O)O (stereo partly shown) [Compound 45] | 49% |
| CC(O)[C@H](NC(=O)N[C@@H](CC(N)=O)c1nc(C2CCCCC2)no1)C(=O)O (stereo partly shown) [Compound 46] | 52% |
| CC(O)[C@H](NC(=O)N[C@@H](CCC(=O)O)c1nc([C@@H]2COCCN2)no1)C(=O)O (stereo partly shown) [Compound 47] | 57% |
| CC(O)[C@H](NC(=O)N[C@@H](CC(N)=O)c1nc(C2(N)CCCC2)no1)C(=O)O (stereo partly shown) [Compound 48] | 47% |
| CC(O)[C@H](NC(=O)N[C@@H](CC(N)=O)c1nc(C2(N)CCCCC2)no1)C(=O)O (stereo partly shown) [Compound 49] | 16% |
| CC(O)[C@H](NC(=O)N[C@@H](CC(N)=O)c1nc([C@@H]2C[C@@H](O)CN2)no1)C(=O)O (stereo partly shown) [Compound 51] | 44% |
| C[C@H](NC(=O)N[C@@H](CCCCN)c1nc([C@@H]2CCCN2)no1)C(=O)O [Compound 52] | 46% |
